Tests used:
[1] = test system: participants with migraine; test: Office blood pressure in 12-week double blind randomized 3×3 factorial trial; type: in vivo, human
Method: There was a 4 week screening period and another 4-week post study drug observational period.
There was a 4-week screening period and another 4-week post study drug observational period.
Group 2 received the low-dose BP lowering combination and simvastatin (i.e., telmisartan 20 mg+amlodipine 2.5 mg+simvastatin). Group 3 received the low-dose BP lowering combination and placebo (i.e., telmisartan 20 mg+amlodipine 2.5 mg+placebo). […] Group 9 received double placebo.
Office BP was measured following the recommendations of the Australian National Heart Foundation. Participants were rested in the seated position for 5 minutes, an appropriate cuff size was selected and 3 measurements of BP were recorded using an Omron HEM907 monitor or equivalent validated automated digital BP monitor. Principles of automated office BP measurements were applied whereby the patient was left alone during BP recording.
All analyses of study outcomes were conducted according to the principle of intention-to-treat. The analyses of continuous outcomes such SBP and LDL-cholesterol at 12 weeks was performed using ANCOVA including the treatment arm and baseline values as a covariate. Additional analyses included interim measurements in a longitudinal model including treatment arm, visit, and treatment by visit interaction as well as the baseline measurement. Within-patient correlations were modelled using generalized estimating equations. A similar approach was applied to binary endpoints with log-binomial regression used in place of linear regression. There were also pre-defined subgroup analyses, baseline BP, baseline LDL, gender and age.

[2] = test system: participants with migraine; test: Subject status / participant withdrawals by visit in the 3×3 factorial trial
[3] = Randomization (baseline, before treatment)
[4] = Week 16 (after 4-week post study drug period)

CCC(C)(C)C(=O)O[C@H]1C[C@@H](C)C=C2C=C[C@H](C)[C@H](CC[C@@H]3C[C@@H](O)CC(=O)O3)[C@H]21 [Simvastatin, simvastatin]
Diastolic Blood Pressure Mean (SD) [1, 3]: 9 82.7 (8.43) mmHg | Diastolic Blood Pressure Q1 [1, 3]: 76.0 mmHg | Diastolic Blood Pressure Q2 [1, 3]: 81.0 mmHg | Diastolic Blood Pressure Q3 [1, 3]: 89.0 mmHg | Diastolic Blood Pressure max [1, 3]: 96 mmHg | Diastolic Blood Pressure min [1, 3]: 72 mmHg | Systolic Blood Pressure Mean (SD) [1, 3]: 9 124.2 (13.17) mmHg | Systolic Blood Pressure Q1 [1, 3]: 114.7 mmHg | Systolic Blood Pressure Q2 [1, 3]: 123.0 mmHg | Systolic Blood Pressure Q3 [1, 3]: 132.7 mmHg | Systolic Blood Pressure max [1, 3]: 147 mmHg | Systolic Blood Pressure min [1, 3]: 107 mmHg | Diastolic Blood Pressure Mean (SD) ([1]; Week 4): 9 77.5 (6.98) mmHg | Diastolic Blood Pressure Q1 ([1]; Week 4): 74.0 mmHg | Diastolic Blood Pressure Q2 ([1]; Week 4): 77.7 mmHg | Diastolic Blood Pressure Q3 ([1]; Week 4): 81.3 mmHg | Diastolic Blood Pressure max ([1]; Week 4): 90 mmHg | Diastolic Blood Pressure min ([1]; Week 4): 68 mmHg | Systolic Blood Pressure Mean (SD) ([1]; Week 4): 9 122.2 (14.06) mmHg | Systolic Blood Pressure Q1 ([1]; Week 4): 113.7 mmHg | Systolic Blood Pressure Q2 ([1]; Week 4): 119.3 mmHg | Systolic Blood Pressure Q3 ([1]; Week 4): 126.7 mmHg | Systolic Blood Pressure max ([1]; Week 4): 146 mmHg | Systolic Blood Pressure min ([1]; Week 4): 102 mmHg | Diastolic Blood Pressure Mean (SD) ([1]; Week 8): 9 77.1 (6.07) mmHg | Diastolic Blood Pressure Q1 ([1]; Week 8): 72.3 mmHg | Diastolic Blood Pressure Q2 ([1]; Week 8): 78.7 mmHg | Diastolic Blood Pressure Q3 ([1]; Week 8): 81.7 mmHg | Diastolic Blood Pressure max ([1]; Week 8): 84 mmHg | Diastolic Blood Pressure min ([1]; Week 8): 68 mmHg | Systolic Blood Pressure Mean (SD) ([1]; Week 8): 9 117.0 (11.50) mmHg | Systolic Blood Pressure Q1 ([1]; Week 8): 111.0 mmHg | Systolic Blood Pressure Q2 ([1]; Week 8): 115.3 mmHg | Systolic Blood Pressure Q3 ([1]; Week 8): 124.3 mmHg | Systolic Blood Pressure max ([1]; Week 8): 135 mmHg | Systolic Blood Pressure min ([1]; Week 8): 95 mmHg | Diastolic Blood Pressure Mean (SD) ([1]; Week 12 (end of treatment)): 9 78.4 (10.70) mmHg | Diastolic Blood Pressure Q1 ([1]; Week 12 (end of treatment)): 78.3 mmHg | Diastolic Blood Pressure Q2 ([1]; Week 12 (end of treatment)): 81.3 mmHg | Diastolic Blood Pressure Q3 ([1]; Week 12 (end of treatment)): 85.7 mmHg | Diastolic Blood Pressure max ([1]; Week 12 (end of treatment)): 87 mmHg | Diastolic Blood Pressure min ([1]; Week 12 (end of treatment)): 54 mmHg | Systolic Blood Pressure Mean (SD) ([1]; Week 12 (end of treatment)): 9 117.8 (14.06) mmHg | Systolic Blood Pressure Q1 ([1]; Week 12 (end of treatment)): 111.0 mmHg | Systolic Blood Pressure Q2 ([1]; Week 12 (end of treatment)): 120.0 mmHg | Systolic Blood Pressure Q3 ([1]; Week 12 (end of treatment)): 125.7 mmHg | Systolic Blood Pressure max ([1]; Week 12 (end of treatment)): 135 mmHg | Systolic Blood Pressure min ([1]; Week 12 (end of treatment)): 88 mmHg | Change in DBP from baseline to 12 weeks Mean (SD) ([1]; Week 12 v/s Baseline): 9 −4.3 (8.95) mmHg | Change in DBP from baseline to 12 weeks Q1 ([1]; Week 12 v/s Baseline): −8.7 mmHg | Change in DBP from baseline to 12 weeks Q2 ([1]; Week 12 v/s Baseline): −3.7 mmHg | Change in DBP from baseline to 12 weeks Q3 ([1]; Week 12 v/s Baseline): −0.7 mmHg | Change in DBP from baseline to 12 weeks max ([1]; Week 12 v/s Baseline): 9 mmHg | Change in DBP from baseline to 12 weeks min ([1]; Week 12 v/s Baseline): −22 mmHg | Change in SBP from baseline to 12 weeks Mean (SD) ([1]; Week 12 v/s Baseline): 9 −6.4 (8.24) mmHg | Change in SBP from baseline to 12 weeks Q1 ([1]; Week 12 v/s Baseline): −12.0 mmHg | Change in SBP from baseline to 12 weeks Q2 ([1]; Week 12 v/s Baseline): −4.7 mmHg | Change in SBP from baseline to 12 weeks Q3 ([1]; Week 12 v/s Baseline): 0.3 mmHg | Change in SBP from baseline to 12 weeks max ([1]; Week 12 v/s Baseline): 5 mmHg | Change in SBP from baseline to 12 weeks min ([1]; Week 12 v/s Baseline): −19 mmHg | Diastolic Blood Pressure Mean (SD) [1, 4]: 9 80.5 (7.29) mmHg | Diastolic Blood Pressure Q1 [1, 4]: 74.3 mmHg | Diastolic Blood Pressure Q2 [1, 4]: 80.7 mmHg | Diastolic Blood Pressure Q3 [1, 4]: 87.0 mmHg | Diastolic Blood Pressure max [1, 4]: 90 mmHg | Diastolic Blood Pressure min [1, 4]: 71 mmHg | Systolic Blood Pressure Mean (SD) [1, 4]: 9 118.3 (10.11) mmHg | Systolic Blood Pressure Q1 [1, 4]: 109.7 mmHg | Systolic Blood Pressure Q2 [1, 4]: 116.7 mmHg | Systolic Blood Pressure Q3 [1, 4]: 123.0 mmHg | Systolic Blood Pressure max [1, 4]: 136 mmHg | Systolic Blood Pressure min [1, 4]: 107 mmHg | Discontinuing the study (n/N) ([2]; Week 4): 0/9 | Discontinuing the study (percent) ([2]; Week 4): (0.0%) | Discontinuing: Deceased (n/N) ([2]; Week 4): 0/0 | Discontinuing: Deceased (percent) ([2]; Week 4): (0.0%) | Discontinuing the study (n/N) ([2]; Week 8): 0/9 | Discontinuing the study (percent) ([2]; Week 8): (0.0%) | Discontinuing: Deceased (n/N) ([2]; Week 8): 0/0 | Discontinuing: Deceased (percent) ([2]; Week 8): (0.0%) | Discontinuing the study (n/N) ([2]; Week 12): 0/9 | Discontinuing the study (percent) ([2]; Week 12): (0.0%) | Discontinuing: Deceased (n/N) ([2]; Week 12): 0/0 | Discontinuing: Deceased (percent) ([2]; Week 12): (0.0%) | Deceased (n/N) ([2]; Week 16): 0/9 | Deceased (percent) ([2]; Week 16): (0.0%)

Reference: patent publication US12661345B2, “Compositions for the treatment of hypertension” (The George Institute for Global Health, priority 2017, dated 2026)
